Values after ≈ are worked out from the molar mass of the structure shown. Where two headings read alike, the source gives them in different places. Each block holds one molecule with its values, some of them ahead of it.
Tests used:
Escherichia coli = assay: MIC, agar dilution, Escherichia coli; format: cell-based; details: Escherichia coli, read-out: MIC
Procedure: (§1) Stock solution of each test antibiotic compound were prepared to have a concentration of 2 mg. of the test compound per milliliter in sterile water of 0.1M ammonium acetate solution. The amount of each compound used was adjusted for base compound activity as calculated from the purity data for the selected batch of compound.
(§2) The dilution procedure described by Washington and Sutter [Manual of Clinical Microbiology, 3rd, Edit. (Lennett, E. H. et al, Eds.), pp. 453-458 (1980), American Society for Microbiology, Washington, D.C.] was modified so that serial concentrations of 128 to 0.0625 microgram/ml. in sterile water was obtained. Then 1.5 ml. aliquots of these test antibiotic dilution mixtures are added to 13.5 molten (50° C.) Mueller-Hinton agar. Each resulting mixture is poured into 15×100 mm, sterile Petri plates and allowed to dry at room temperature overnight.
(§3) Test bacterial cultures are maintained at -70° C. on glass beads. [See R. J. Yancey, Jr. et al, Amer. Jr. of Vet. Research, 48, No. 7, pp. 1050-1053, (1987)]. At least one bacteria-laden bead per culture is dropped into one ml. of brain heart infusion (BHI) broth for overnight culture at 37° C. in 5% V/V carbon dioxide in air atmosphere.
(§4) On the data of assay, 2 to 8 drops of the bacterial broth cultures are transferred to fresh BHI broth (1 ml.) and the mixture is incubated for 4 to 6 hours at 37° C. in a 5% V/V carbon dioxide in air atmosphere. The resulting cultures are then diluted to match a 0.5 MacFarland standard and further diluted 1:20 V/V with sterile saline solution.
(§5) A 0.001 ml. drop of the resulting mixture, containing approximately 10^3 to 10^4 colony forming units (CFU) of each test bacteria organism, is dispensed onto the surface of the test antibiotic compound test plates with a Steer's type replicator. The resulting innoculated plates are incubated 16 to 18 hours at 37° C. with a carbon dioxide atmosphere.
as §1, with “Stock solutions” for “Stock solution”
as §2, with “mm.” for “mm,”
as §2, with “for Microbiology.” for “for Microbiology,”, “15×100 mm.” for “15×100 mm,”
as §3, with “culture” for “cultures”
(§6) On the day of assay, 2 to 8 drops of the bacterial broth cultures are transferred to fresh BHI broth (1 ml.) and the mixture is incubated for 4 to 6 hours at 37° C. in a 5% V/V carbon dioxide in air atmosphere. […]

Pasteurella multocida = assay: MIC, agar dilution, Pasteurella multocida; format: cell-based; details: Pasteurella multocida; strain UC9581; read-out: MIC
Procedure: as §1, §2, §3, §4, §5
as §1, with “Stock solutions” for “Stock solution”
as §2, with “mm.” for “mm,”
as §2, with “for Microbiology.” for “for Microbiology,”, “15×100 mm.” for “15×100 mm,”
as §3, with “culture” for “cultures”
as §6

Micrococcus luteus = assay: MIC, agar dilution, Micrococcus luteus; format: cell-based; details: Micrococcus luteus; strain UC130; read-out: MIC
Procedure: as §1, §2, §3, §4, §5
as §1, with “Stock solutions” for “Stock solution”
as §2, with “mm.” for “mm,”
as §2, with “for Microbiology.” for “for Microbiology,”, “15×100 mm.” for “15×100 mm,”
as §3, with “culture” for “cultures”
as §6

Salmonella choleraesuis = assay: MIC, agar dilution, Salmonella choleraesuis; format: cell-based; details: Salmonella enterica, read-out: MIC
Procedure: as §1, §2, §3, §4, §5
as §1, with “Stock solutions” for “Stock solution”
as §2, with “mm.” for “mm,”
as §2, with “for Microbiology.” for “for Microbiology,”, “15×100 mm.” for “15×100 mm,”
as §3, with “culture” for “cultures”
as §6

Enterococcus faecalis = assay: MIC, agar dilution, Enterococcus faecalis; format: cell-based; details: Enterococcus faecalis; strain UC694; read-out: MIC
Procedure: as §1, with “Stock solutions” for “Stock solution”
as §2, §3, §4, §5, §1
as §2, with “mm.” for “mm,”
as §2, with “for Microbiology.” for “for Microbiology,”, “15×100 mm.” for “15×100 mm,”
as §3, with “culture” for “cultures”
as §6

[1] = test system: Bordetella bronchiseptica; assay: MIC, agar dilution, Bordetella bronchiseptica; format: cell-based; details: Bordetella bronchiseptica; strain UC6313; read-out: MIC
Procedure: as §1, §2, §3, §4, §5
as §1, with “Stock solutions” for “Stock solution”
as §2, with “mm.” for “mm,”
as §2, with “for Microbiology.” for “for Microbiology,”, “15×100 mm.” for “15×100 mm,”
as §3, with “culture” for “cultures”
as §6

Corynebacterium pyogenes = assay: MIC, agar dilution, Corynebacterium pyogenes; format: cell-based; details: strain 213-2; read-out: MIC
Procedure: as §1, §2, §3, §4, §5
as §1, with “Stock solutions” for “Stock solution”
as §2, with “mm.” for “mm,”
as §2, with “for Microbiology.” for “for Microbiology,”, “15×100 mm.” for “15×100 mm,”
as §3, with “culture” for “cultures”
as §6

Streptococcus agalactiae = assay: MIC, agar dilution, Streptococcus agalactiae; format: cell-based; details: Streptococcus agalactiae, read-out: MIC
Procedure: as §1, §2, §3, §4, §5
as §1, with “Stock solutions” for “Stock solution”
as §2, with “mm.” for “mm,”
as §2, with “for Microbiology.” for “for Microbiology,”, “15×100 mm.” for “15×100 mm,”
as §3, with “culture” for “cultures”
as §6

Enterococcus faecium = assay: MIC, agar dilution, Enterococcus faecium; format: cell-based; details: Enterococcus faecium; strain UC241; read-out: MIC
Procedure: as §1, with “Stock solutions” for “Stock solution”
as §2, §3, §4, §5, §1
as §2, with “mm.” for “mm,”
as §2, with “for Microbiology.” for “for Microbiology,”, “15×100 mm.” for “15×100 mm,”
as §3, with “culture” for “cultures”
as §6

Streptococcus bovis = assay: MIC, agar dilution, Streptococcus bovis; format: cell-based; details: Streptococcus equinus; strain UC6281; read-out: MIC
Procedure: as §1, §2, §3, §4, §5
as §1, with “Stock solutions” for “Stock solution”
as §2, with “mm.” for “mm,”
as §2, with “for Microbiology.” for “for Microbiology,”, “15×100 mm.” for “15×100 mm,”
as §3, with “culture” for “cultures”
as §6

Pasteurella hemolytica = assay: MIC (minimum inhibitory concentration), agar dilution, Pasteurella hemolytica; format: cell-based; details: Pasteurella, read-out: MIC
Procedure: as §1, §2, §3, §4, §5
as §1, with “Stock solutions” for “Stock solution”
as §2, with “mm.” for “mm,”
as §2, with “for Microbiology.” for “for Microbiology,”, “15×100 mm.” for “15×100 mm,”
as §3, with “culture” for “cultures”
as §6

Pseudomonas aeruginosa = assay: MIC, agar dilution, Pseudomonas aeruginosa; format: cell-based; details: Pseudomonas aeruginosa, ATCC27853; strain ATCC 27853; read-out: MIC
Procedure: as §1, §2, §3, §4, §5
as §1, with “Stock solutions” for “Stock solution”
as §2, with “mm.” for “mm,”
as §2, with “for Microbiology.” for “for Microbiology,”, “15×100 mm.” for “15×100 mm,”
as §3, with “culture” for “cultures”
as §6

Salmonella typhimurium [2] = assay: MIC, agar dilution, Salmonella typhimurium; format: cell-based; details: Salmonella enterica, read-out: MIC
Procedure: as §1, §2, §3, §4, §5
as §1, with “Stock solutions” for “Stock solution”
as §2, with “mm.” for “mm,”
as §2, with “for Microbiology.” for “for Microbiology,”, “15×100 mm.” for “15×100 mm,”
as §3, with “culture” for “cultures”
as §6

Staphylococcus aureus = assay: MIC, agar dilution, Staphylococcus aureus; format: cell-based; details: Staphylococcus aureus, read-out: MIC
Procedure: as §1, §2, §3, §4, §5
as §1, with “Stock solutions” for “Stock solution”
as §2, with “mm.” for “mm,”
as §2, with “for Microbiology.” for “for Microbiology,”, “15×100 mm.” for “15×100 mm,”
as §3, with “culture” for “cultures”
as §6

Streptococcus uberis = assay: MIC, agar dilution, Streptococcus uberis; format: cell-based; details: Streptococcus uberis, read-out: MIC
Procedure: as §1, §2, §3, §4, §5
as §1, with “Stock solutions” for “Stock solution”
as §2, with “mm.” for “mm,”
as §2, with “for Microbiology.” for “for Microbiology,”, “15×100 mm.” for “15×100 mm,”
as §3, with “culture” for “cultures”
as §6

[3] = test system: Streptococcus dysgalactiae; assay: MIC, agar dilution, Streptococcus dysgalactiae; format: cell-based; details: Streptococcus dysgalactiae; strain UC251; read-out: MIC
Procedure: as §1, §2, §3, §4, §5
as §1, with “Stock solutions” for “Stock solution”
as §2, with “mm.” for “mm,”
as §2, with “for Microbiology.” for “for Microbiology,”, “15×100 mm.” for “15×100 mm,”
as §3, with “culture” for “cultures”
as §6

Streptococcus suis = assay: MIC, agar dilution, Streptococcus suis; format: cell-based; details: Streptococcus suis; strain 650-2; read-out: MIC
Procedure: as §1, §2, §3, §4, §5
as §1, with “Stock solutions” for “Stock solution”
as §2, with “mm.” for “mm,”
as §2, with “for Microbiology.” for “for Microbiology,”, “15×100 mm.” for “15×100 mm,”
as §3, with “culture” for “cultures”
as §6

Salmonella typhimurium [4] = assay: Systemic infection model in mice, ED50, Salmonella typhimurium; format: in vivo; details: Salmonella enterica, TYPHIMURIUM / UC6164, sc, 144 h, strain UC6164, lactamase producing, subcutaneous, 0, 24, 48 hours post infection, 50% survival six days post infection, per day, read-out: ED50 (95% confidence limits)
Procedure: (§7) Experimental Infections and Antitiotic Treatment (for ED50 in mice tests).
(§8) Mice are infected and treated with the test antibiotic compound according to procedures described previously [Yancey, Jr., R. J. et at. supra].
(§9) The test antibiotic compound is administered subcutaneously immediately following infection, then at 24 hours and 48 hours post infection. The medium effective dose (ED50) number is determined for all infections. The ED50 value is defined as the calculated concentration of the test antibiotic compound in mg. of compound per kilogram of mouse body weight per day at which 50% of the animals survived six days post infection.

P. hemolytica = assay: Systemic infection model in mice, ED50, P. hemolytica; format: in vivo; details: Mus musculus, sc, 144 h, strain UC6532, lactamase producing, subcutaneous, 0, 24, 48 hours post infection, 50% survival six days post infection, per day, read-out: ED50 (95% confidence limits)
Procedure: as §7, §8, §9

MIC (Escherichia coli; strain UC3784): 4 µg/mL (≈ 7.36 µM)
MIC (Escherichia coli; strain UC6720): 8 µg/mL (≈ 14.7 µM)
MIC (Escherichia coli; strain UC9670): 4 µg/mL (≈ 7.36 µM)
MIC (Pasteurella multocida): ≤ 0.06 µg/mL
MIC (Micrococcus luteus): ≤ 0.06 µg/mL
MIC (Enterococcus faecalis): > 32 µg/mL
MIC [1]: > 32 µg/mL
MIC (Corynebacterium pyogenes): 0.5 µg/mL (≈ 0.92 µM)
MIC (Streptococcus agalactiae; strain UC3947): ≤ 0.06 µg/mL
MIC (Streptococcus agalactiae; strain UC6892): ≤ 0.06 µg/mL
MIC (Enterococcus faecium): > 32 µg/mL
MIC (Streptococcus bovis): ≤ 0.06 µg/mL
MIC (Pseudomonas aeruginosa): > 32 µg/mL
MIC (Salmonella typhimurium [2]; TYPHIMURIUM / UC6162, strain UC6162): 16 µg/mL (≈ 29.4 µM)
MIC (Salmonella typhimurium [2]; TYPHIMURIUM / UC6164, strain UC6164): 16 µg/mL (≈ 29.4 µM)
MIC (Staphylococcus aureus; strain UC6093): 1 µg/mL (≈ 1.84 µM)
MIC (Staphylococcus aureus; strain UC6097): 1 µg/mL (≈ 1.84 µM)
MIC (Staphylococcus aureus; strain UC9203): 1 µg/mL (≈ 1.84 µM)
MIC (Streptococcus uberis; strain UC3946): 0.13 µg/mL (≈ 0.239 µM)
MIC (Streptococcus uberis; strain UC6159): 8 µg/mL (≈ 14.7 µM)
MIC [3]: ≤ 0.06 µg/mL
MIC (Streptococcus suis): ≤ 0.06 µg/mL
Compound: CO/N=C(\C(=O)N[C@@H]1C(=O)N2C(C(=O)O)=C(CSSC3CCCCC3)CS[C@H]12)c1csc(N)n1 [Example 19]
MIC (Salmonella choleraesuis; CHOLERAESUIS / UC6073, strain UC6073): 8 µg/mL (≈ 14.7 µM)
MIC (Salmonella choleraesuis; CHOLERAESUIS / UC6077, strain UC6077): 16 µg/mL (≈ 29.4 µM)
MIC (Pasteurella hemolytica; strain UC6531): 0.5 µg/mL (≈ 0.92 µM)
MIC (Pasteurella hemolytica; strain UC6532): 0.5 µg/mL (≈ 0.92 µM)
MIC (Pasteurella hemolytica; strain UC9582): 0.25 µg/mL (≈ 0.46 µM)

Compound: CC1(C)S[C@@H]2[C@H](NC(=O)[C@H](N)c3ccccc3)C(=O)N2[C@H]1C(=O)O [ampicillin]
ED50 (Salmonella typhimurium [4]): > 100 mg/kg
ED50 (P. hemolytica): > 100 mg/kg

— patent publication US5134137A, “Cephalosporin antibiotics” (The Upjohn Company, priority 1990, dated 1992)
